The results in this text go back to ChEMBL document CHEMBL5576047, “Synthesis of a new 2-prenylated quinoline as potential drug for metabolic syndrome with pan-PPAR activity and anti-inflammatory effects” (Bioorg Med Chem Lett, 2024).

Format in all cases: cell-based
In assay [1] the target is T1, Peroxisome proliferator-activated receptor alpha (Homo sapiens, UniProt Q07869).
T1 sequence (Q07869 whole entry): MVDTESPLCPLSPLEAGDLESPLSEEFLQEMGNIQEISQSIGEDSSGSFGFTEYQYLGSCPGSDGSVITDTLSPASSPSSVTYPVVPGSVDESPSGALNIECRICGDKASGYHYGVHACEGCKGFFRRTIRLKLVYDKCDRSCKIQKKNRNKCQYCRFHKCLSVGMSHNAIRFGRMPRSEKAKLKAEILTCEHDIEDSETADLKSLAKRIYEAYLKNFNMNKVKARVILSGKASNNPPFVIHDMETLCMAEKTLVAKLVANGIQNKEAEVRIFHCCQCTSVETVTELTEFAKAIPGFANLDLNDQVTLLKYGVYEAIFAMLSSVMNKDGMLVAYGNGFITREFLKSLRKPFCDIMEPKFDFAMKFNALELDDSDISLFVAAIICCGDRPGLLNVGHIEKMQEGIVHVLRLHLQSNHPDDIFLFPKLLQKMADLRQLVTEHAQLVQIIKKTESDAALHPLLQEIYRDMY
The experiment in a line: Agonist activity at GAL4-tagged human PPARalpha transfected in African green monkey COS7 cells assessed as transcriptional activation by measuring effective concentration incubated for 24 hrs by luciferase assay.

Assay [2] concerns the target T2, Peroxisome proliferator-activated receptor gamma (Homo sapiens, UniProt P37231).
T2 sequence (P37231 whole entry): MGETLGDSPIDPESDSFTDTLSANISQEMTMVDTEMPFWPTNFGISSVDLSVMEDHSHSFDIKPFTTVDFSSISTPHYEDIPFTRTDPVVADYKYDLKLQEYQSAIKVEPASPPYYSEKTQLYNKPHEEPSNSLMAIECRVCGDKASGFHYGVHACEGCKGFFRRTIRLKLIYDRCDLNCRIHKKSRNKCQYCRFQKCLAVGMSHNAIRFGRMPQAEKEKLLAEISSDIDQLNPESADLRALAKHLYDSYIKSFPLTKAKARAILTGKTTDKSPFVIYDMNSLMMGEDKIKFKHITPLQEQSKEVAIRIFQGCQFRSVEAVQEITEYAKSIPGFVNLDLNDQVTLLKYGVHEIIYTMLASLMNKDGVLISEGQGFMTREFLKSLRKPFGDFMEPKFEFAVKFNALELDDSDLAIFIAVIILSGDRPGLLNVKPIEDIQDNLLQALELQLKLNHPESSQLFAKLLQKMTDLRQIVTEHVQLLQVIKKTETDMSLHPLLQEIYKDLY
The experiment in a line: Agonist activity at GAL4-tagged human PPARgamma transfected in African green monkey COS7 cells assessed as transcriptional activation by measuring effective concentration incubated for 24 hrs by luciferase assay.

The target of assay [3] is T3, Peroxisome proliferator-activated receptor delta (Homo sapiens, UniProt Q03181).
T3 sequence (Q03181 whole entry): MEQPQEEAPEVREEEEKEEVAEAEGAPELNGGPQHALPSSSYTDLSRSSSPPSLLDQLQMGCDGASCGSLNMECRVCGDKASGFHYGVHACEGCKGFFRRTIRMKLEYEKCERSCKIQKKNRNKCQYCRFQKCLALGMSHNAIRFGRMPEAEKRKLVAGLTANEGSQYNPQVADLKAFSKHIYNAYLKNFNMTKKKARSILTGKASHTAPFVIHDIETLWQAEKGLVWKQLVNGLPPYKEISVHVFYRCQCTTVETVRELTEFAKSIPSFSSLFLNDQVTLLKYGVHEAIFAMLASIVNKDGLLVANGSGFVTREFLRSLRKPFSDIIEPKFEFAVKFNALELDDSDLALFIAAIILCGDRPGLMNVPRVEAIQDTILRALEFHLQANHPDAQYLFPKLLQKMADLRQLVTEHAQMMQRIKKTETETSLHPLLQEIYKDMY
Briefly: Agonist activity at GAL4-tagged human PPARbeta/delta transfected in African green monkey COS7 cells assessed as transcriptional activation by measuring effective concentration incubated for 24 hrs by luciferase assay.

As for `Cc1cc(SCc2sc(-c3ccc(C(F)(F)F)cc3)nc2C)ccc1OCC(=O)O` [GW501516], the concentration for a half-maximal effect (EC50) entry in assay [1] (cos7) was “Not Active”.
Regarding `CCOC(=O)CC/C(C)=C/CCC1(C)CCc2cc(OCc3ccccc3)ccc2O1` (centres undefined), the concentration giving a half-maximal response (EC50) in assay [1] (read-out: EC50) was found to be 2950 nM; in assay [2] (read-out: EC50), 1590 nM.
With `CCOC(=O)/C(=C/CCC1(C)CCc2cc(OCc3ccccc3)ccc2O1)OCC(F)(F)F` (centres undefined), the EC50 entry in assay [1] (cos7) and in assay [2] (cos7) was “Not Active” in each case.
Turning to `CCOC(=O)CC/C(C)=C/CCc1ccc2cc(OCc3ccccc3)ccc2n1`, the EC50 in assay [1] (read-out: EC50) was 3200 nM; in assay [3], 1510 nM.
In the case of `CN(CCOc1ccc(CC2SC(=O)NC2=O)cc1)c1ccccn1` (centres undefined) [ROSIGLITAZONE], in assay [1] (cos7), the EC50 entry was “Not Active”.
Regarding `Cc1cccc(Nc2cc(Cl)nc(SCC(=O)O)n2)c1C` [PIRINIXIC ACID], the EC50 entry in assay [2] (cos7) was “Not Active”.

The EC50 is the concentration giving half of the maximal effect.
